The results in this text go back to patent publication EP4545542A1, “TRANSITION METAL CLUSTER COMPOUNDS FOR ELECTROCHEMICAL APPLICATIONS” (Litricity GmbH, priority 2023, dated 2025).

A short description of the first data set: Solubility by the shake-flask method. The settings on record: Table 2: Solubility test of Fe28 clusters (acid linkers; Fe28+Tartaric acid with Ba, Ca, Mg counterions); conditions not given separately.
Method: Solubility was determined by the shake-flask method (table 1) at room temperature (25 °C, pH = 5.7 in 0.3 M of Na2SO4).
For the substance “Mq10[Fe28(µ3-O)8(tart)16(OAc)24] ×H2O [Mg10Fe28]”, the Solubility – broadly, how much of the substance goes into solution per volume – is reported as 1 mM. The same measure, in the same setting: with “Ca10[Fe28(µ3-O)8(tart)16(OAc)24] ×H2O [Ca10Fe28]” the figure was 2 mM; with “Ba10[Fe28(µ3-O)8(tart)16(OAc)24] ×H2O [Ba10Fe28]”, 84 mM.

Still in this data set, the particulars now being: shake-flask method, room temperature (25 °C, pH = 5.7 in 0.3 M of Na2SO4); Table 1, influence of the cation.
Substance “Li2K18[Fe28(µ3-O)8(tart)16(OAc)24] ×H2O [Li2K18Fe28]” had a Solubility of 48 mM. That is a millimolar value.

“K20[Fe28(µ3-O)8(tart)16(OAc)24] ×H2O [Cluster K20Fe28]” showed a Solubility of 50 mM. On the same count and under the same terms, the value for “Li2Na18[Fe28(µ3-O)8(tart)16(OAc)24] ×H2O [Li2Na18Fe28]” was 83 mM. The same measure, in the same setting: the value for “Na20[Fe28(µ3-O)8(tart)16(OAc)24] ×H2O [Na20Fe28]” was 70 mM; that for “K2Li18[Fe28(µ3-O)8(tart)16(OAc)24] ×H2O [Cluster K2Li28Fe28]” was 88 mM.
